Test results: patent US9580726B2, “Tomato plants comprising transgenic event Bs2-X5” (priority 2013, dated 2017)
Counter-ions that a name gives are not always drawn. Like-named read-outs stand apart in the source and are kept apart here.

Key:
[1] = system: Xanthomonas bacterial isolates; format: cell-based, Xanthomonas perforans; conditions: 200 μg/ml, 3 days
Description: The bacterial isolates were also tested for sensitivity to the bactericides, streptomycin and copper using established procedures. All strains were tested for growth on media with either streptomycin sulfate (200 μg/ml) or copper sulfate (pentahydrate) 200 μg/ml (0.8 mM)) after 3 days, [38].

[2] = system: bacterial spot disease on tomato; conditions: cited from earlier work
[3] = Collier, zone III, Florida 47, 20 strains isolated (r19)
[4] = Collier, zone III, Grape, 18 strains isolated (r22)
[5] = Collier, zone III, Grape, 20 strains isolated (r21)
[6] = Collier, zone III, Large Fruit, 19 strains isolated (r23)
[7] = Collier, zone III, Roma, 20 strains isolated (r20)
[8] = Decatur, GA, zone V, Large Fruit, 19 strains isolated (r39)
[9] = Decatur, GA, zone V, Large Fruit, 20 strains isolated (r41)
[10] = Decatur, GA, zone V, Large Fruit, 20 strains isolated (r43)
[11] = Gadsden, zone V, Large Fruit, 19 strains isolated (r37)
[12] = Gadsden, zone V, Large Fruit, 20 strains isolated (r35)
[13] = Manatee, zone IV, Large Fruit, 20 strains isolated (r25)
[14] = Manatee, zone IV, Large Fruit, 20 strains isolated (r27)
[15] = Manatee, zone IV, Large Fruit, 20 strains isolated (r29)
[16] = Manatee, zone IV, Large Fruit, 20 strains isolated (r31)
[17] = Manatee, zone IV, Large Fruit, 20 strains isolated (r33)
[18] = Miami Dade, zone I, Large Fruit, 13 strains isolated (r13)
[19] = Miami Dade, zone I, Large Fruit, 15 strains isolated (r9)
[20] = Miami Dade, zone I, Large Fruit, 20 strains isolated (r11)
[21] = Miami Dade, zone I, Plum, 20 strains isolated (r15)
[22] = Palm Beach, zone II, Heirloom varieties, 14 strains isolated (r17)
[23] = Totals, 377 strains isolated (r45)

Row | SMILES | Bactericide Resistance: number of resistant strains [1, 3] | Bactericide Resistance: number of resistant strains [1, 4] | Bactericide Resistance: number of resistant strains [1, 5] | Bactericide Resistance: number of resistant strains [1, 6] | Bactericide Resistance: number of resistant strains [1, 7] | Bactericide Resistance: number of resistant strains [1, 8] | Bactericide Resistance: number of resistant strains [1, 9] | Bactericide Resistance: number of resistant strains [1, 10] | Bactericide Resistance: number of resistant strains [1, 11] | Bactericide Resistance: number of resistant strains [1, 12] | Bactericide Resistance: number of resistant strains [1, 13] | Bactericide Resistance: number of resistant strains [1, 14] | Bactericide Resistance: number of resistant strains [1, 15] | Bactericide Resistance: number of resistant strains [1, 16] | Bactericide Resistance: number of resistant strains [1, 17] | Bactericide Resistance: number of resistant strains [1, 18] | Bactericide Resistance: number of resistant strains [1, 19] | Bactericide Resistance: number of resistant strains [1, 20] | Bactericide Resistance: number of resistant strains [1, 21] | Bactericide Resistance: number of resistant strains [1, 22] | further results
1 | O.O.O.O.O.O=S(=O)([O-])[O-].[Cu+2] [Cu, copper sulfate (pentahydrate)] | 20 | 14 | 20 | 19 | 20 | 19 | 20 | 20 | 19 | 20 | 20 | 20 | 20 | 20 | 20 | 13 | 15 | 20 | 20 | 14 | Bactericide Resistance: number of resistant strains [1, 23]: 377; Bactericide Resistance: number of resistant strains ([1]; Totals, 377 strains isolated (r45), listed as copper): all current field strains were found to be resistant
2 | [Cu+2].[OH-].[OH-] [Copper hydroxide] | – | – | – | – | – | – | – | – | – | – | – | – | – | – | – | – | – | – | – | – | Significant difference between treatment and untreated control: Foliar Rating ([2]; 2008, TN, Ref [3]): No; Significant difference between treatment and untreated control: Marketable Yield ([2]; 2008, TN, Ref [3]): No; Significant difference between treatment and untreated control: AUDPC ([2]; 2009, OH, Ref [4]): No; Significant difference between treatment and untreated control: Marketable Yield ([2]; 2009, OH, Ref [4]): No; Significant difference between treatment and untreated control: Foliar Rating ([2]; 2009, OH, Ref [4], foliar symptoms lower on copper treated plots, fruit symptoms not): Yes^f; Significant difference between treatment and untreated control: AUDPC ([2]; 2010, FL, Ref [6]): Yes^h; Significant difference between treatment and untreated control: Foliar Rating ([2]; 2010, FL, Ref [6]): No^h; Significant difference between treatment and untreated control: Marketable Yield ([2]; 2010, FL, Ref [6]): No
3 | [H]/N=C(/N)N[C@H]1[C@H](O)[C@@H](O)[C@H](O[C@@H]2O[C@@H](C)[C@](O)(C=O)[C@H]2O[C@@H]2O[C@@H](CO)[C@H](O)[C@@H](O)[C@@H]2NC)[C@@H](N/C(N)=N\[H])[C@@H]1O [St, streptomycin sulfate] | 0 | 0 | 0 | 0 | 0 | 0 | 0 | 0 | 0 | 0 | 0 | 0 | 0 | 1 | 0 | 0 | 0 | 19 | 0 | 0 | Bactericide Resistance: number of resistant strains [1, 23]: 20; Bactericide Resistance: number of resistant strains ([1]; Totals, 377 strains isolated (r45), listed as streptomycin): streptomycin resistant strains were found in two of our survey collection areas
